{"source": "BindingDB's records for patent US20250091994", "about": "(Kobe University, 2025)"}
{"molecular_target": "GTPase HRas [G12V] (Homo sapiens, UniProt P01112, G12V)", "sequence (P01112 whole entry G12V, looked up)": "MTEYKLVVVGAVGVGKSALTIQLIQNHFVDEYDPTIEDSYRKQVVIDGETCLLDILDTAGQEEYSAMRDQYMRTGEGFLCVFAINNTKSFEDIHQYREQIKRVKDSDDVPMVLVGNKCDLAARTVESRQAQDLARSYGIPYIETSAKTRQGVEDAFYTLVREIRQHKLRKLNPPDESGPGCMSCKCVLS", "experiment": "In Vitro Ras-Raf Binding Inhibitory Activity Assay", "description": "The in vitro Ras-Raf binding inhibitory activity of the compound of the present invention was evaluated by an ELISA method described below. GST-c-Raf-1 RBD diluted with a Ras-Raf binding buffer (50 mM Tris-HCl pH7.4, 150 mM NaCl, 5 mM MgCl2, 1 mM EDTA, and 1% Triton-X100) was added to each well of a glutathione-coated 96-well plate (Thermo Fisher Scientific.), and was incubated at 30° C. for 1 hour, to immobilize Raf on the well. The unbound free Raf was eliminated by washing the well with the Ras-Raf binding buffer three times. Subsequently, GTPTS-bound HRasG12V diluted with the Ras-Raf binding buffer and each compound solution (final DMSO concentration: 10%) were applied to each well, and the resulting mixture was then incubated at 30° C. for 1 hour, so that Ras and Raf were allowed to bind to each other. Thereafter, the plate was washed with the Ras-Raf binding buffer twice, and was then subjected to a blocking treatment at room temperature for 20 minutes, using TBS-Tween {10 mM Tris-HCl pH 7.4, 150 mM NaCl, and 0.05% (w/v) Tween-20}-5% (w/v) bovine serum albumin (BSA). After that, an anti-HRas antibody (C-20, Santa Cruz) or an anti-HRas antibody (259, Santa Cruz), which had been 1000 times diluted with TBS-Tween-5% BSA, was added to the reaction mixture, and incubated at room temperature for 1 hours. After the treatment with the primary antibody, the plate was washed with TBS-Tween-5% BSA three times, and a horseradish peroxidase-labeled secondary antibody against rabbit immunoglobulin G (GE Healthcare) of 1000 times diluted with TBS-Tween-5% BSA, was added to the plate, followed by incubation at room temperature for 1 hour. After the treatment with the secondary antibody, the plate was washed with TBS-Tween-5% BSA three times, and a substrate solution (TMB) was then added to the plate, followed by incubation at room temperature for 15 minutes for coloration. Finally, 2 M H2SO4 was added to stop color development (coloration reaction kit: Nacalai Tesque).", "units": {"IC50": "nM"}}
{"compound": "COc1cc(C=C2C(=O)c3cccc(F)c3N2C(C)=O)ccc1OCC(=O)N1CCOCC1", "note": "[US20250091994, Example 105]", "IC50": 20000}
{"compound": "CC(=O)NCc1cccc2c1C(=O)/C(=C/c1ccc3cc(C(=O)N4CCOCC4)ccc3n1)N2C(C)=O", "note": "[US20250091994, Example 106]", "IC50": 4100}
{"compound": "CC(=O)N1/C(=C/c2nc3ccc(/C=C/C(=O)N4CCOCC4)cc3s2)C(=O)c2ccccc21", "note": "[US20250091994, Example 108]", "IC50": 2600}
{"compound": "CC(=O)N1C(=Cc2nc3cc(/C=C/C(=O)N4CCOCC4)ccc3s2)C(=O)c2ccccc21", "note": "[US20250091994, Example 109]", "IC50": 460}
{"compound": "CC(=O)N1/C(=C/c2nc3cc(/C=C/C(=O)N4CCOCC4)ccc3s2)C(=O)c2ccccc21", "note": "[US20250091994, Example 110]", "IC50": 420}
{"compound": "CC(=O)N1/C(=C\\c2cc(C(N)=O)c3cc(C(=O)N4CCOCC4)ccc3n2)C(=O)c2ccccc21", "note": "[US20250091994, Example 111]", "IC50": 1000}
{"compound": "CC(=O)N1/C(=C\\c2cc(On3nnc4cccnc43)c3cc(C(=O)N4CCOCC4)ccc3n2)C(=O)c2ccccc21", "note": "[US20250091994, Example 112]", "IC50": 550}
{"compound": "CC(=O)Nc1cc(/C=C2/C(=O)c3ccccc3N2C(C)=O)nc2ccc(C(=O)N3CCOCC3)cc12", "note": "[US20250091994, Example 113]", "IC50": 680}
{"compound": "CC(=O)N1/C(=C\\c2ccc3cc(C(=O)N4CCC(c5ccccc5)CC4)ccc3n2)C(=O)c2ccccc21", "note": "[US20250091994, Example 114]", "IC50": 29000}
{"compound": "COCCN1CCN(C(=O)c2ccc3nc(/C=C4/C(=O)c5ccccc5N4C(C)=O)ccc3c2)CC1", "note": "[US20250091994, Example 116]", "IC50": 8400}
{"compound": "CC(=O)N1/C(=C/c2cc(-c3ccnc4ccccc34)c3cc(C(=O)N4CCOCC4)ccc3n2)C(=O)c2ccccc21", "note": "[US20250091994, Example 117]", "IC50": 1100}
{"compound": "CC(=O)N1C(=Cc2cc(-c3cccc4ccccc34)c3cc(C(=O)N4CCOCC4)ccc3n2)C(=O)c2ccccc21", "note": "[US20250091994, Example 118]", "IC50": 730}
{"compound": "COC1(CN2CCN(C(=O)c3ccc4nc(/C=C5/C(=O)c6ccccc6N5C(C)=O)ccc4c3)CC2)COC1", "note": "[US20250091994, Example 119]", "IC50": 2900}
{"compound": "COC1(COC(=O)N2CCN(C(=O)c3ccc4nc(/C=C5/C(=O)c6ccccc6N5C(C)=O)ccc4c3)CC2)COC1", "note": "[US20250091994, Example 120]", "IC50": 2200}
{"compound": "CCOC(=O)N1C(=Cc2ccc(OCC(=O)N3CCOCC3)c(OC)c2)C(=O)c2ccccc21", "note": "[US20250091994, Example 123]", "IC50": 8500}
{"compound": "COc1cc(C=C2C(=O)c3ccccc3N2C(C)=O)ccc1OCCO", "note": "[US20250091994, Example 125]", "IC50": 2800}
{"compound": "CC(=O)N1C(=Cc2ccc3cc(OCCO)ccc3n2)C(=O)c2ccccc21", "note": "[US20250091994, Example 126]", "IC50": 1400}
{"compound": "CC(=O)N1/C(=C\\c2ccc3cc(C(=O)O)ccc3n2)C(=O)c2ccccc21", "note": "[US20250091994, Example 127]", "IC50": 2100}
{"compound": "CC(=O)N1/C(=C\\c2ccc3cc(C(=O)N4CCC(C(=O)O)CC4)ccc3n2)C(=O)c2ccccc21", "note": "[US20250091994, Example 129]", "IC50": 1500}
{"compound": "CC(=O)N1C(=Cc2ccc3cc(CNC4CCOCC4)ccc3n2)C(=O)c2ccccc21", "note": "[US20250091994, Example 131]", "IC50": 1500}
{"compound": "CC(=O)N1/C(=C/c2nc3ccc(CNC4CCOCC4)cc3s2)C(=O)c2ccccc21", "note": "[US20250091994, Example 135]", "IC50": 790}
{"compound": "CC(=O)N1C(=Cc2ccc3cc(C(=O)N4CCNCC4)ccc3n2)C(=O)c2ccccc21", "note": "[US20250091994, Example 139]", "IC50": 6000}
{"compound": "CC(=O)N1/C(=C\\c2cc(-c3ccccc3-c3ccccc3)c3cc(C(=O)N4CCN(C)CC4)ccc3n2)C(=O)c2ccccc21", "note": "[US20250091994, Example 140]", "IC50": 1300}
{"compound": "CC(=O)N1/C(=C\\c2cc(-c3ccccc3-c3ccccc3)c3cc(C(=O)N4CCC(C(=O)O)CC4)ccc3n2)C(=O)c2ccccc21", "note": "[US20250091994, Example 142]", "IC50": 800}
{"compound": "CC(=O)N1CCc2cc(-c3cc(/C=C4/C(=O)c5ccccc5N4C(C)=O)nc4ccc(C(=O)N5CCOCC5)cc34)ccc2C1", "note": "[US20250091994, Example 144]", "IC50": 800}
{"compound": "CC(=O)N1/C(=C/c2cc(-c3cccc4[nH]ncc34)c3cc(C(=O)N4CCOCC4)ccc3n2)C(=O)c2ccccc21", "note": "[US20250091994, Example 145]", "IC50": 600}
{"compound": "CC(=O)N1CCc2c(cccc2-c2cc(/C=C3/C(=O)c4ccccc4N3C(C)=O)nc3ccc(C(=O)N4CCOCC4)cc23)C1", "note": "[US20250091994, Example 146]", "IC50": 500}
{"compound": "CC(=O)N1/C(=C/c2cc(-c3cccc(-c4cn[nH]c4)c3)c3cc(C(=O)N4CCOCC4)ccc3n2)C(=O)c2ccccc21", "note": "[US20250091994, Example 148]", "IC50": 300}
{"compound": "CC(=O)N1/C(=C\\c2cc(-c3cccc(-c4cnn(C)c4)c3)c3cc(C(=O)N4CCOCC4)ccc3n2)C(=O)c2ccccc21", "note": "[US20250091994, Example 149]", "IC50": 300}
{"compound": "CC(=O)N1C(=Cc2cc(-c3ccc(-c4ccccc4)cc3)c3cc(C(=O)N4CCN(C5COC5)CC4)ccc3n2)C(=O)c2ccccc21", "note": "[US20250091994, Example 162]", "IC50": 2400}
{"compound": "CC(=O)N1C(=Cc2cc(-c3ccc4c(c3)CCN(C)C4)c3cc(C(=O)N4CCOCC4)ccc3n2)C(=O)c2ccccc21", "note": "[US20250091994, Example 173]", "IC50": 400}
{"compound": "CC(=O)N1/C(=C\\c2cc(-c3cnn(C)c3)c3ccccc3n2)C(=O)c2ccccc21", "note": "[US20250091994, Example 177]", "IC50": 800}
{"compound": "CCn1cc(-c2cc(/C=C3/C(=O)c4ccccc4N3C(C)=O)nc3ccc(C(=O)N4CCOCC4)cc23)cn1", "note": "[US20250091994, Example 178]", "IC50": 800}
{"compound": "CC(=O)N1CCCC(c2cc(/C=C3/C(=O)c4ccccc4N3C(C)=O)nc3ccc(C(=O)N4CCOCC4)cc23)C1", "note": "(stereo not drawn) [US20250091994, Example 179]", "IC50": 1000}
{"compound": "CC(=O)N1C(=Cc2cc(CN3CCOCC3=O)c3ccccc3n2)C(=O)c2ccccc21", "note": "[US20250091994, Example 183]", "IC50": 1400}
{"compound": "CC(=O)N1/C(=C\\c2cc(-c3ccncc3)c3cc(C(=O)N4CCOCC4)ccc3n2)C(=O)c2ccccc21", "note": "[US20250091994, Example 184]", "IC50": 900}
{"compound": "CC(=O)N1C(=Cc2cc(-c3cncnc3)c3cc(C(=O)N4CCOCC4)ccc3n2)C(=O)c2ccccc21", "note": "[US20250091994, Example 185]", "IC50": 1600}
{"compound": "CC(=O)N1CCc2cc(-c3cc(/C=C4/C(=O)c5ccccc5N4C(C)=O)nc4ccccc34)ccc2C1", "note": "[US20250091994, Example 187]", "IC50": 500}
{"compound": "CC(=O)N1/C(=C\\c2cc(-c3ncccn3)c3cc(C(=O)N4CCOCC4)ccc3n2)C(=O)c2ccccc21", "note": "[US20250091994, Example 189]", "IC50": 1500}
{"compound": "CC(=O)N1C(=Cc2cc(-c3ccc4c(c3)CCNC4=O)c3ccccc3n2)C(=O)c2ccccc21", "note": "[US20250091994, Example 190]", "IC50": 900}
{"compound": "CC(=O)N1/C(=C\\c2cc(-c3cn(C)cn3)c3cc(C(=O)N4CCOCC4)ccc3n2)C(=O)c2ccccc21", "note": "[US20250091994, Example 192]", "IC50": 800}
{"compound": "CC(=O)N1CCc2c(cccc2-c2cc(/C=C3/C(=O)c4ccccc4N3C(C)=O)nc3ccccc23)C1", "note": "[US20250091994, Example 193]", "IC50": 700}
{"compound": "CC(=O)N1/C(=C\\c2cc(-c3ccccc3-c3cnn(C)c3)c3cc(C(=O)N4CCOCC4)ccc3n2)C(=O)c2ccccc21", "note": "[US20250091994, Example 196]", "IC50": 800}
